As a reminder, the Ki is a dissociation constant, usually derived from enzyme kinetics or from competition with a known ligand. A higher Ki goes with lower affinity.

Assay type in all cases: biochemical
One assay deals with T1, EPHA2 (Homo sapiens, UniProt P29317).
T1 construct: purchased Life Technologies
The assay can be described thus: EPHA2 kinase assay, IMAP fluorescence polarization. The conditions noted are these: 50 or 100 μM ATP, Tris pH 8.5, average.

A further assay addresses T2, SIK1 (Homo sapiens, UniProt P57059).
T2 construct: purchased Life Technologies
The assay can be described thus: SIK1 kinase assay, IMAP fluorescence polarization. The conditions noted are these: 50 or 100 μM ATP, average. The procedure, abridged: (§1)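 Dose-response over 0.00005-1 μM compound in 20 mM Tris pH 7.2 containing 4 mM MgCl2, 0.2% BSA and 2 mM DTT, with 50 or 100 μM ATP and 100 nM FAM-labelled peptide. Kinase 0.6-13 nM, 60 min at room temperature; IMAP FP readout, inhibition normalized to no-inhibitor and no-enzyme controls.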

The next assay deals with T3, SIK2 (Homo sapiens, UniProt Q9H0K1).
T3 construct: purchased Life Technologies
T3 sequence (Q9H0K1 whole entry): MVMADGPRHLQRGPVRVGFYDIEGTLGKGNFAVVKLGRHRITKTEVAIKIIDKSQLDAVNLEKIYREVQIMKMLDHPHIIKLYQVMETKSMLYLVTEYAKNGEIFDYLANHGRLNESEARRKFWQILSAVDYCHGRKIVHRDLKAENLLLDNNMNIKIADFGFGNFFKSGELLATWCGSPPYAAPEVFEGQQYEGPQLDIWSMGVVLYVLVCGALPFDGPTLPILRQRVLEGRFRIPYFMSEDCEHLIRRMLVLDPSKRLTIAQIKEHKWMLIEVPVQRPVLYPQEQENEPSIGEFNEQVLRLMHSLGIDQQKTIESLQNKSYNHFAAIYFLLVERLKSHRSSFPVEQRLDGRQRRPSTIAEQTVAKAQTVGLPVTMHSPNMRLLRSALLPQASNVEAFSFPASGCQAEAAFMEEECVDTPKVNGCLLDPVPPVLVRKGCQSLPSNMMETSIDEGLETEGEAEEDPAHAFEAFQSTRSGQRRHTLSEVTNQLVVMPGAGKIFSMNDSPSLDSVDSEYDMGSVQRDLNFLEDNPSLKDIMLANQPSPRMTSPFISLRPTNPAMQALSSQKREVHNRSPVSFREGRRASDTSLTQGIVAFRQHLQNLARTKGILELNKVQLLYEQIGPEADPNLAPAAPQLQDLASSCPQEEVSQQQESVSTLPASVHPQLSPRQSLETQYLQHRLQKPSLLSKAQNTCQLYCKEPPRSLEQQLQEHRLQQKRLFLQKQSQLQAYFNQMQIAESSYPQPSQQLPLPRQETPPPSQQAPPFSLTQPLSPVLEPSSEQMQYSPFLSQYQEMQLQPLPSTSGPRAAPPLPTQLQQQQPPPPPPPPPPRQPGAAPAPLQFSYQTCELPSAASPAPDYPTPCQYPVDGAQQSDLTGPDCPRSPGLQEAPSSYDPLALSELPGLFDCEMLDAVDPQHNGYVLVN
The assay can be described thus: SIK2 kinase assay, IMAP fluorescence polarization. The conditions noted are these: 50 or 100 μM ATP, average. Summed up:
as §1
In general terms: In fluorescence polarisation assays a small probe gives low polarisation when free and higher when bound to something large.

The next assay concerns the target T4, Abl (Homo sapiens, UniProt P00519).
T4 construct: purchased Life Technologies
The assay can be described thus: Abl kinase assay, IMAP fluorescence polarization. As to conditions: 50 or 100 μM ATP, average. The procedure, abridged: as §1

A further assay has as its target T5, SIK3 (Homo sapiens, UniProt Q9Y2K2).
T5 construct: purchased Life Technologies
The assay can be described thus: SIK3 kinase assay, IMAP fluorescence polarization. The conditions noted are these: 50 or 100 μM ATP, average. The procedure, abridged:
as §1

In another assay the target is T6, Src (Homo sapiens, UniProt P12931).
T6 construct: purchased Life Technologies
The assay can be described thus: Src kinase assay, IMAP fluorescence polarization. The conditions noted are these: 50 or 100 μM ATP, average. Summed up:
as §1

T4 sequence (P00519 whole entry): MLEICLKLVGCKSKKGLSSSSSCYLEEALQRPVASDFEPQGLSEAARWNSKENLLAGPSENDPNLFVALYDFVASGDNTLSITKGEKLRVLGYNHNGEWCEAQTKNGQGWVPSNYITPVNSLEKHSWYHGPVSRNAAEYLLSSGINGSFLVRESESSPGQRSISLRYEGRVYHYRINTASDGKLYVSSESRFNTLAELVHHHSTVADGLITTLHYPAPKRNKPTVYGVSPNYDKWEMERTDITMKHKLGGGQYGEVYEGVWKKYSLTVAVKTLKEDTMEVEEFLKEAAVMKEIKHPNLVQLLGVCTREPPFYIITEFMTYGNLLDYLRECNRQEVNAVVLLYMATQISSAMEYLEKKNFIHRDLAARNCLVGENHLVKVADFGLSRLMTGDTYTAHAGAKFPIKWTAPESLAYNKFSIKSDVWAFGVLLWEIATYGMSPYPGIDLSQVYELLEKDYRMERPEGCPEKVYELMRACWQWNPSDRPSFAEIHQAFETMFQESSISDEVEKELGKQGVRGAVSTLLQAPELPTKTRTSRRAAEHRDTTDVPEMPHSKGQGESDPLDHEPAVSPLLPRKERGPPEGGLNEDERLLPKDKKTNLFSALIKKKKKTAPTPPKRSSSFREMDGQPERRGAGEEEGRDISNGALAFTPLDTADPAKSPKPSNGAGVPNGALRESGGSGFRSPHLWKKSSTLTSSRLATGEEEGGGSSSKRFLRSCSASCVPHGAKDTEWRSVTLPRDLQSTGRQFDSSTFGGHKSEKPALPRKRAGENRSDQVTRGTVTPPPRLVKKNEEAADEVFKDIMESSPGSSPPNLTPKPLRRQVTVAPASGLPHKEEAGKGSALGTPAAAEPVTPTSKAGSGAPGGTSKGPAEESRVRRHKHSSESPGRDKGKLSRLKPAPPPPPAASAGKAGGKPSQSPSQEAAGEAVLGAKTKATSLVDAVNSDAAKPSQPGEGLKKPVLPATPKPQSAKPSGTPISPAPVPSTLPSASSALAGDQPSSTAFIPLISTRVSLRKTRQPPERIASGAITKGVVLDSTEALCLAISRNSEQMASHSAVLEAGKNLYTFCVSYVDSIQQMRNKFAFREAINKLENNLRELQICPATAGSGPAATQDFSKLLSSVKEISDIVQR
T1 sequence (P29317 24-976): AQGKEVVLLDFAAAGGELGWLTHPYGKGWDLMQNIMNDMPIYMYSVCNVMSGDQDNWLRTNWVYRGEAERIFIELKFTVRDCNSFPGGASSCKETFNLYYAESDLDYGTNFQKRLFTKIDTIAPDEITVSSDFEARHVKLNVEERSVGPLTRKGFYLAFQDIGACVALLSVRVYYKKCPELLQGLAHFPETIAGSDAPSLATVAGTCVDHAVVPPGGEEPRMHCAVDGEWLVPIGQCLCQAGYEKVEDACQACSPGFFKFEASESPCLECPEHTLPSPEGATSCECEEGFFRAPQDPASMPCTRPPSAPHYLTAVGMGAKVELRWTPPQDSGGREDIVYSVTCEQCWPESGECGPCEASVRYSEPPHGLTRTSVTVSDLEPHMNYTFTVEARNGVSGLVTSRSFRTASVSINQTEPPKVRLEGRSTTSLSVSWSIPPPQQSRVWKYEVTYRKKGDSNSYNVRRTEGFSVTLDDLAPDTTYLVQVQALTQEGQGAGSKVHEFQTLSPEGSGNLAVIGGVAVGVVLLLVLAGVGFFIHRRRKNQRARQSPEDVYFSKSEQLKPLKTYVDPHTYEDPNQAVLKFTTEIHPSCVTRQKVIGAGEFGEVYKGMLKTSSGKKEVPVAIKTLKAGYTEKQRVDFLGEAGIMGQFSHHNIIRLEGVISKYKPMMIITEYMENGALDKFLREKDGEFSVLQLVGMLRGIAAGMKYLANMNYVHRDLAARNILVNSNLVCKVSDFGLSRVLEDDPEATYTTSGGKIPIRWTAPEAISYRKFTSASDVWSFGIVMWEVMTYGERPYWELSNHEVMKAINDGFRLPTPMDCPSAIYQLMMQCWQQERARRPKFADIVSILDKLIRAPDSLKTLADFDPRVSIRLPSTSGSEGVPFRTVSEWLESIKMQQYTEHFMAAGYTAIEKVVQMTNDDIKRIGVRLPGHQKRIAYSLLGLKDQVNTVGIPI
T2 sequence (P57059 whole entry): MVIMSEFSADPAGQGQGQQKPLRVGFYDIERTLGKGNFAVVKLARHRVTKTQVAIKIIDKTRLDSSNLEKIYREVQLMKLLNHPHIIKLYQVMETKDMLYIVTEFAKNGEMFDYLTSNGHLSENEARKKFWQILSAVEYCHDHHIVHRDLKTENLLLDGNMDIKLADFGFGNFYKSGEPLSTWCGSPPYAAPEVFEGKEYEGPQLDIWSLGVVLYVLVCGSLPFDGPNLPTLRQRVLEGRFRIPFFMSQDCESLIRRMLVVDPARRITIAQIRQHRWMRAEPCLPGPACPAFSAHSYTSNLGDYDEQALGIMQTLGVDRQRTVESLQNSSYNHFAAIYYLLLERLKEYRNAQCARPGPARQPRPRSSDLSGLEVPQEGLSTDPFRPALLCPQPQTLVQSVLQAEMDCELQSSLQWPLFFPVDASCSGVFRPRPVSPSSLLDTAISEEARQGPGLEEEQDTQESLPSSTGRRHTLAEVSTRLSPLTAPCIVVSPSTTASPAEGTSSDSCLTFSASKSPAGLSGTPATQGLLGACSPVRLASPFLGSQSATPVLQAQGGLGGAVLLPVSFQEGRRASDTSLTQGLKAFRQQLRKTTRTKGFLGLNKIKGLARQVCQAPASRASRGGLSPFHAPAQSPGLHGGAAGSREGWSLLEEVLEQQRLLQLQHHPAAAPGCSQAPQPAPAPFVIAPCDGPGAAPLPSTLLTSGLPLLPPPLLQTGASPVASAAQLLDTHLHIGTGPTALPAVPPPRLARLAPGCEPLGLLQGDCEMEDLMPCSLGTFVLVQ
T5 sequence (Q9Y2K2 whole entry): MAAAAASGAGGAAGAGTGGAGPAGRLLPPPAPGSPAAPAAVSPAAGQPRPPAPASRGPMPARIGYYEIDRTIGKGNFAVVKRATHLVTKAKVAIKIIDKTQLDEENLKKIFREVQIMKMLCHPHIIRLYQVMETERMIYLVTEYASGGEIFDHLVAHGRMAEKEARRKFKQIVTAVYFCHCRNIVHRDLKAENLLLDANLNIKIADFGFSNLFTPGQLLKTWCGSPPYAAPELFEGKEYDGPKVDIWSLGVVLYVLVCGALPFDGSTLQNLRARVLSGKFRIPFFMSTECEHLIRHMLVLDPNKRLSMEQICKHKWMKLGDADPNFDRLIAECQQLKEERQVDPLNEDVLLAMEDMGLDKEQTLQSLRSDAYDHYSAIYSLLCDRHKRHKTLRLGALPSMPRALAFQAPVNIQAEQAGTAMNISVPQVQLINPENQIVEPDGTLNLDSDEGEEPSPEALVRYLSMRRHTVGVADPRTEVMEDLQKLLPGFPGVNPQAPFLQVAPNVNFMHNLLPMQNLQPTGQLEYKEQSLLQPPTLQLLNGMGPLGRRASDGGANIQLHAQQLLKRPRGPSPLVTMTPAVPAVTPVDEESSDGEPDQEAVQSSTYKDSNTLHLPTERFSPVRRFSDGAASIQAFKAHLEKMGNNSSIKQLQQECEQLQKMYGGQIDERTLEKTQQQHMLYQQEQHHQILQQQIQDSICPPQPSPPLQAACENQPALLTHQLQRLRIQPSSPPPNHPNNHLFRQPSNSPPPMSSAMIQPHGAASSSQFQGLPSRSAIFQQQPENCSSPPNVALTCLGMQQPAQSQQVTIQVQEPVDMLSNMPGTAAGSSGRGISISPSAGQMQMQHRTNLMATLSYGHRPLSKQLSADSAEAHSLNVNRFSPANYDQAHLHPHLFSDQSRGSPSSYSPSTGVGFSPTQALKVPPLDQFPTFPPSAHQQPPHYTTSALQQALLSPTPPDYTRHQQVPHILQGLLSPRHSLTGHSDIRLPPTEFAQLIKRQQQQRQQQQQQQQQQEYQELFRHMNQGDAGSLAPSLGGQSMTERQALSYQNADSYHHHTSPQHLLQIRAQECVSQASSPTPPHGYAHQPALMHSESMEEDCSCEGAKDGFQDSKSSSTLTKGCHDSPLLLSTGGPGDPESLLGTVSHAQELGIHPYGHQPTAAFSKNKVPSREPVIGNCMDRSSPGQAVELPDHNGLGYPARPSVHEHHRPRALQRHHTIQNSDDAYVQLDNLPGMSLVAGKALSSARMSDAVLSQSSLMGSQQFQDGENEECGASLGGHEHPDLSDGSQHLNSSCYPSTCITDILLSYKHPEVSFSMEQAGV

As for `Cc1cccc(F)c1-c1cc(N[C@H]2CCN(C)C2)c2cc(N)ncc2c1` [Example 70, 7-(2-fluoro-6-methyl-phenyl)-N5-[(3S)-1-methylpyrrolidin-3-yl]isoquinoline-3,5-diamine], the Ki on EPHA2 was 74.6 nM; on SIK1 it was 0.439 nM; on SIK2, 0.111 nM; on Abl, 9.94 nM; at SIK3, 4.14 nM; on Src it was 84.8 nM.
As to `Cc1cccc(F)c1-c1cc(N2CCC(N(C)C)CC2)c2cc(N)ncc2c1` [Example 57, 5-[4-(dimethylamino)-1-piperidyl]-7-(2-fluoro-6-methyl-phenyl)isoquinolin-3-amine], the Ki at EPHA2 was 150 nM; at SIK1, 1.13 nM; on SIK2, 0.147 nM; at Abl it was 59.9 nM; at SIK3 it was 2.45 nM; at Src, 303 nM.
On to `CNc1cc2c(NC3CCNCC3)cc(-c3c(C)cccc3F)cc2cn1` [Example 27, 7-(2-Fluoro-6-methyl-phenyl)-N3-methyl-N5-(4-piperidyl)isoquinoline-3,5-diamine], for which the Ki on EPHA2 is 216 nM; at SIK1 it was 0.429 nM; on SIK2 it was 0.0748 nM; at Abl it was 22.9 nM; on SIK3, 0.349 nM; on Src, 218 nM.
Take `Cc1cccc(F)c1-c1cc(NC2CCOCC2)c2cc(N)ncc2c1` [Example 110, 7-(2-Fluoro-6-methyl-phenyl)-N5-tetrahydropyran-4-yl-isoquinoline-3,5-diamine]: the Ki at EPHA2 was more than 1000 nM; on SIK1, 55.5 nM; on SIK2, 6.97 nM; at Abl, 56 nM; on SIK3, 78.1 nM; on Src, more than 10000 nM.
For `Cc1cccc(F)c1-c1cc(NCC2CCNCC2)c2cc(N)ncc2c1` [Example 8, 7-(2-fluoro-6-methyl-phenyl)-N5-(4-piperidylmethyl)isoquinoline-3,5-diamine], the Ki on EPHA2 was 5.15 nM; at SIK1 it was 0.546 nM; on SIK2 it was 0.108 nM; on Abl, 1.4 nM; on SIK3 it was 1.02 nM; on Src, 16.5 nM.
As to `Cc1cccc(F)c1-c1cc(N2CCC[C@H](N(C)C)C2)c2cc(N)ncc2c1` [Example 82, 5-[(3S)-3-(dimethylamino)-1-piperidyl]-7-(2-fluoro-6-methyl-phenyl)isoquinolin-3-amine], the Ki on EPHA2 is more than 1000 nM; on SIK1 it was 1.25 nM; at SIK2 it was 0.269 nM; at Abl, 10.4 nM; on SIK3, 10.3 nM; on Src, 93.9 nM.
For `Cc1cccc(F)c1-c1cc(NC2CCNCC2)c2cc(NC(C)C)ncc2c1` [Example 28, 7-(2-fluoro-6-methyl-phenyl)-N3-isopropyl-N5-(4-piperidyl)isoquinoline-3,5-diamine], the Ki on EPHA2 was more than 1000 nM; at SIK1, 1.39 nM; on SIK2 it was 0.155 nM; at Abl, 14.8 nM; at SIK3 it was 0.504 nM; at Src, 413 nM.
As for `Cc1cccc(F)c1-c1cc(N[C@@H]2CCCCNC2)c2cc(N)ncc2c1` [Example 17, N5-[(3R)-azepan-3-yl]-7-(2-fluoro-6-methyl-phenyl)isoquinoline-3,5-diamine], the Ki on EPHA2 is more than 1000 nM; at SIK1, 0.463 nM; at SIK2, 0.096 nM; on Abl, 2.55 nM; at SIK3, 1.65 nM; on Src it was more than 1000 nM.
As to `Cc1cccc(F)c1-c1cc(N2CC[C@@H](N(C)C)C2)c2cc(N)ncc2c1` [Example 58, 5-[(3R)-3-(dimethylamino)pyrrolidin-1-yl]-7-(2-fluoro-6-methyl-phenyl)isoquinolin-3-amine], the Ki was more than 1000 nM at EPHA2; 5.37 nM on SIK1; 1.11 nM on SIK2; 107 nM at Abl; 8.64 nM at SIK3; 1400 nM on Src.
Regarding `CC(=O)N[C@H]1CCN(c2cc(-c3c(C)cccc3F)cc3cnc(N)cc23)C1` [Example 112, N-[(3S)-1-[3-Amino-7-(2-fluoro-6-methyl-phenyl)-5-isoquinolyl]pyrrolidin-3-yl]acetamide], the Ki was more than 10000 nM at EPHA2; 91.6 nM on SIK1; 14.7 nM on SIK2; 124 nM at Abl; 431 nM on SIK3; more than 10000 nM at Src.
Turning to `Cc1cccc(F)c1-c1cc(NC[C@H]2CCCN2)c2cc(N)ncc2c1` [Example 12, 7-(2-fluoro-6-methyl-phenyl)-N5-[[(2R)-pyrrolidin-2-yl]methyl]isoquinoline-3,5-diamine], the Ki at EPHA2 was 216 nM; on SIK1 it was 1.07 nM; on SIK2 it was 0.329 nM; on Abl, 22.9 nM; at SIK3 it was 3.1 nM; on Src, 167 nM.
With `Cc1cccc(F)c1-c1cc(NC2CCNCC2)c2c(C#N)c(N)ncc2c1` [Example 133, 3-Amino-7-(2-fluoro-6-methyl-phenyl)-5-(4-piperidylamino)isoquinoline-4-carbonitrile], the Ki on EPHA2 was determined as 34.8 nM; on SIK1 it was 0.348 nM; on SIK2, 0.0609 nM; at Abl, 1.13 nM; on SIK3 it was 0.271 nM; on Src, 6.32 nM.
Regarding `Cc1cccc(F)c1-c1cc2cnc(N)cc2c(NC2CCNCC2)c1F` [Example 134, 6-Fluoro-7-(2-fluoro-6-methyl-phenyl)-N5-(4-piperidyl)isoquinoline-3,5-diamine], the Ki at EPHA2 is 25.1 nM; at SIK1, 0.558 nM; at SIK2, 0.132 nM; on Abl, 1.94 nM; on SIK3 it was 0.452 nM; at Src, 12.3 nM.
As to `CN[C@H]1CCN(c2cc(-c3c(C)cccc3F)cc3cnc(N)cc23)C1` [Example 16, 7-(2-fluoro-6-methyl-phenyl)-5-[(3S)-3-(methylamino)pyrrolidin-1-yl]isoquinolin-3-amine], the Ki on EPHA2 was found to be 278 nM; at SIK1 it was 2 nM; at SIK2, 0.224 nM; at Abl, 41.6 nM; at SIK3, 4.7 nM; on Src, 924 nM.
Consider `Cc1cccc(Cl)c1-c1cc(NC2CCNCC2)c2ncncc2c1` [Example 138, 6-(2-chloro-6-methyl-phenyl)-N-(4-piperidyl)quinazolin-8-amine], for which the Ki on EPHA2 came out at 93.4 nM; at SIK1, 3.7 nM; at SIK2, 3.12 nM; at Abl, 545 nM; at SIK3, 15.7 nM; at Src it was 333 nM.
`Cc1cccc(Cl)c1-c1cc(NC2CCNCC2)c2ccncc2c1` [Example 50, 7-(2-chloro-6-methyl-phenyl)-N-(4-piperidyl) isoquinolin-5-amine]: the Ki at EPHA2 stood at 18.9 nM; on SIK1, 1.27 nM; on SIK2, 0.983 nM; on Abl it was 66.1 nM; on SIK3 it was 3.23 nM; on Src, 98 nM.
For `Cc1cccc(F)c1-c1cc(N2CCC[C@@H](CN(C)C)C2)c2cc(N)ncc2c1` [Example 61, 5-[(3S)-3-[(dimethylamino)methyl]-1-piperidyl]-7-(2-fluoro-6-methyl-phenyl)isoquinolin-3-amine], the inhibition constant (Ki) at EPHA2 turned out to be 199 nM; at SIK1 it was 3.23 nM; on SIK2 it was 1.08 nM; on Abl, 27.7 nM; at SIK3, 39.5 nM; on Src it was 226 nM.
`CCN1CCC(Nc2cc(-c3c(C)cccc3Cl)cc3cnc(N)nc23)CC1` [Example 128, 6-(2-chloro-6-methyl-phenyl)-N8-(1-ethyl-4-piperidyl)quinazoline-2,8-diamine]: the Ki on EPHA2 stood at 20 nM; on SIK1, 0.409 nM; at SIK2, 0.184 nM; at Abl, 26.4 nM; on SIK3, 1.46 nM; on Src, 27.4 nM.
Regarding `CNC1CCN(c2cc(-c3c(C)cccc3F)cc3cnc(N)cc23)CC1` [Example 15, 7-(2-fluoro-6-methyl-phenyl)-5-[4-(methylamino)-1-piperidyl]isoquinolin-3-amine], the Ki on EPHA2 came out at 156 nM; at SIK1 it was 1.01 nM; at SIK2, 0.155 nM; at Abl, 19.4 nM; at SIK3, 1.94 nM; on Src, 396 nM.
As for `Cc1cccc(F)c1-c1cc(N2CCC[C@@H](O)C2)c2cc(N)ncc2c1` [Example 108, (3R)-1-[3-amino-7-(2-fluoro-6-methyl-phenyl)-5-isoquinolyl]piperidin-3-ol], the Ki came to 2290 nM on EPHA2; 29.7 nM on SIK1; 2.39 nM at SIK2; 101 nM at Abl; 130 nM at SIK3; 1880 nM on Src.
Turning to `Cc1cccc(F)c1-c1cc(NC[C@@H]2CCCNC2)c2cc(N)ncc2c1` [Example 10, 7-(2-fluoro-6-methyl-phenyl)-N5-[[(3R)-3-piperidyl]methyl]isoquinoline-3,5-diamine], the inhibitory constant (Ki) was found to be 47.6 nM at EPHA2; 0.535 nM at SIK1; 0.101 nM on SIK2; 4.83 nM on Abl; 0.966 nM at SIK3; 32.1 nM at Src.
